Measurements taken from patent US10626092B2, “Polymorphic forms of 3-[(2-butyl-1-(2-diethylamino-ethyl)-1H-benzoimidazol-5-yl]-N-hydroxy-acrylamide and uses thereof” (MEI PHARMA, INC., priority 2016, dated 2020).
Counter-ions that a name gives are not always drawn.

Assays:
Type in all cases: physicochemical
[1] = Physical stability under accelerated aging conditions (40° C./70% RH), physical form re-determined by HT-XRPD; conditions: physical stability under accelerated aging conditions (40° C./70% RH) for 48 hours
Procedure: Solids were analyzed for their physical stability under accelerated aging conditions (40° C./70% RH) for 48 hours. After the exposure, the physical form was determined again by HT-XRPD analysis. The physico-chemical characterization of the forms was done by TGMS analysis to determine the solvation state of the form and thermal events and by DSC analysis to confirm the thermal events observed in the SDTA signal of the TGA. (See Examples for details.)
Suspensions of 3-[2-butyl-1-(2-diethylamino-ethyl)-1H-benzoimidazol-5-yl]-N-hydroxy-acrylamide dihydrochloride monohydrate (Form 1) and 2.5 hydrate (Form 3) were prepared in 12 process relevant solvent systems. The suspensions were cycled between 5° C. and 50° C. followed by aging at 25° C. for 72 hours. […] Upon completion of the incubation time, the solids were collected, dried under ambient conditions and dried under deep vacuum before being analyzed by HT-XRPD. All the measured solids were exposed to accelerated ageing conditions (2 days at 40° C./70% RH) followed by re-analysis by HT-XRPD.
Long-term slurry conversion experiments were carried out by preparing suspensions of 3-[2-butyl-1-(2-diethylamino-ethyl)-1H-benzoimidazol-5-yl]-N-hydroxy-acrylamide dihydrochloride 2.5 hydrate (Form 3) and monohydrate (Form 1) in 12 different solvents and solvent mixtures. Approximately 30 mg of the specific form was dosed in a standard HPLC vial and aliquots of 100 μL of solvent until a suspension was formed. The suspensions were stirred for 2 weeks at room temperature and for 1 week at 50° C. The solids were isolated from the mother liquor and analyzed by HT-XRPD after mild drying under ambient conditions (ambient) and after thorough drying under vacuum (vacuum). All the solids were exposed to accelerated ageing conditions (2 days at 40° C./70% RH) and re-analyzed by HT-XRPD.
(§1) The competitive slurry experiments were performed in ethanol/water mixtures and methanol/water mixtures within a water activity range of 0-0.2. Approximately 50 mg of each pracinostat dihydrochloride solid form 2.5 hydrate and monohydrate were solid dosed in 1.8 mL HPLC vials. Aliquots of 100 μL of the different water mixtures were added until about half of the amount of solid was in solution. Subsequently, the vials were stirred for one week at 5° C., 21° C. and 50° C. Upon completion of the equilibration time, the solids were separated from the liquids by centrifugation. The solids were dried under ambient conditions (ambient) and dried under vacuum (vacuum) before HT-XRPD analysis. All solid samples were exposed to accelerated gaining conditions (40° C. and 70% RH) for two days (AAC). The water content in the liquid phase was determined Karl Fischer analysis.

[2] = Long-term slurry conversion experiments; conditions: drying the solids under vacuum; converts to 2.5 hydrate Form 3
Procedure: Approximately 30 mg of the specific form was dosed in a standard HPLC vial and aliquots of 100 μL of solvent until a suspension was formed. […] The solids were isolated from the mother liquor and analyzed by HT-XRPD after mild drying under ambient conditions (ambient) and after thorough drying under vacuum (vacuum). All the solids were exposed to accelerated ageing conditions (2 days at 40° C./70% RH) and re-analyzed by HT-XRPD.

[3] = Moisture sorption study (DVS analysis); conditions: for solid form recovered after DVS: HT-XRPD
Procedure: A moisture sorption study was performed to investigate the physical stability of 3-[2-butyl-1-(2-diethylamino-ethyl)-1H-benzoimidazol-5-yl]-N-hydroxy-acrylamide dihydrochloride 2.5 hydrate upon exposure to several relative humidity profiles. HT-XRPD analyses were performed on the solid material obtained after the DVS analyses. The analytical method is described herein.
Differences in hygroscopicity (moisture uptake) of the various forms of a solid material provided a measure of their relative stability at increasing relative humidity. Moisture sorption isotherms of small samples were obtained using a DVS-1 system from Surface Measurement Systems (London, UK); this instrument is suitable for use with as little as a few milligrams of sample, with an accuracy of 0.1 μg. Several humidity profile were applied as described in each individual experiment. Steps consisted of 10% RH. Weight equilibration per step was set with a minimum holding time of 1 hour (10% relative humidity step). At the end of the DVS experiments, the recovered solid material was measured by HT-XRPD.

[4] = Variable temperature XRPD; conditions: 25° C. to 130° C.
Procedure: To investigate the phase interconversions upon temperature exposure, a variable temperature XRPD analysis on 3-[2-butyl-1-(2-diethylamino-ethyl)-1H-benzoimidazol-5-yl]-N-hydroxy-acrylamide dihydrochloride 2.5 hydrate was performed. The experiment was run between 25° C. to 130° C. with cooling back to 25° C. at the end. […] After reaching a temperature of 130° C., the material was cooled back to 25° C.
A variable temperature XRPD experiment with 3-[2-butyl-1-(2-diethylamino-ethyl)-1H-benzoimidazol-5-yl]-N-hydroxy-acrylamide dihydrochloride monohydrate was conducted to investigate the solid form conversion that occurred upon heating. The experiment was run between 25° C. to 143° C. followed by cooling to 25° C., reheating to 155° C. and then cooling again to 25° C. (see FIG. 19).
For variable humidity and temperature experiments the ANSYCO HT chamber was used, installed within the D8 Advance system diffractometer (Bruker) designed with Brag-Brentano geometry and equipped with LynxEye solid state detector. The radiation used for collecting the data was CuKα1 (λ=1.54056 Å) monochromatized by germanium crystal. The material was placed on a fixed sample holder that was mounted inside the chamber.
VT-XRPD: The temperature variation rate was 10° C./min and the equilibration time, prior to starting the data collection at each temperature, was 8 min. The patterns were collected in the range 4-41°2θ, with a step of 0.01573°2θ and measuring time per step of 1 sec. The data collection time, per temperature, was 40 min.

[5] = Desolvation studies: equilibration at 125° C. in high boiling point solvents; conditions: two days; for Form in Ambient AAC: then accelerated aging conditions
Procedure: Using solvent equilibration of hydrates in high boiling point solvents has been reported as a method to obtaining desolvated forms. […] The experiments were started with approximately 50 mg of material and 100 μL of solvent. After equilibration, the solids were isolated from the solutions by centrifugation. The solids were allowed to dry under ambient conditions before HT-XRPD analysis was performed. The wet solids were analyzed by HT-XRPD immediately to avoid hydration under ambient conditions or under vacuum.

[6] = Competitive slurry conversion (thermodynamic stability) of Form 1 and Form 3; conditions: ethanol/water, one week slurry
Procedure: as §1, with “Approximately 50 mg of each solid form were solid dosed in a standard HPLC vial followed by solvent addition. The competitive” for “The competitive”, “in solution. […] Upon completion” for “in solution. Subsequently, the vials were stirred for one week at 5° C., 21° C. and 50° C. Upon completion”

Thermocycling studies = experiment: Thermocycling studies
Procedure: The suspensions were cycled between 5° C. and 50° C. followed by aging at 25° C. for 72 hours. […] Upon completion of the incubation time, the solids were collected, dried under ambient conditions and dried under deep vacuum before being analyzed by HT-XRPD. All the measured solids were exposed to accelerated ageing conditions (2 days at 40° C./70% RH) followed by re-analysis by HT-XRPD.

[7] = Moisture sorption study (DVS analysis); conditions: DVS; hydrate
[8] = four sorption-desorption cycles 0-95-0% RH

CCCCc1nc2cc(/C=C/C(=O)NO)ccc2n1CCN(CC)CC [Form 2, 3-[2-butyl-1-(2-diethylamino-ethyl)-1H-benzoimidazol-5-yl]-N-hydroxy-acrylamide dihydrochloride trihydrate]
Stability ([1]; dihydrochloride trihydrate): Unstable
physical stability upon drying [2]: physically unstable

CCCCc1nc2cc(/C=C/C(=O)NO)ccc2n1CCN(CC)CC [Form 3, 3-[2-butyl-1-(2-diethylamino-ethyl)-1H-benzoimidazol-5-yl]-N-hydroxy-acrylamide dihydrochloride 2.5 hydrate]
Stability ([1]; hydrate): Stable
solid form recovered after DVS ([3]; 0% RH for 18 hours): converted to a new solid form designated Form 6
hygroscopicity ([3]; DVS, hydrate): non-hygroscopic
gradual loss of water ([3]; constant 0% RH for 18 hours, in the first 5 hours): 8%
mass loss at 0% RH [3, 8]: about 2%
relative humidity below which the water is gradually lost [3, 8]: below 15 % RH
relative humidity values at which the form does not change [3, 8]: 25-95%
water loss between 5-0% RH ([3]; two sorption-desorption cycles 45-95-0-95-0-45% RH): about 2%
solid form recovered after DVS ([3]; two sorption-desorption cycles 45-95-0-95-0-45% RH, hydrate): 2.5 hydrate was recovered
temperature at which conversion to a new solid form was initially observed [4]: 60 °C
temperature at which conversion to the new solid form was completed [4]: 70 °C
temperature at which second conversion (to Form 5) was completed [4]: 110 °C
temperature at which second conversion (to Form 5) was observed [4]: 100 °C
Form in Ambient ([5]; Anisole): Mono
Form in Ambient AAC ([5]; Anisole): 2.5
Form in Ambient ([5]; Cumene): Mono
Form in Ambient AAC ([5]; Cumene, hydrate): 2.5 + Mono
Form in Ambient ([5]; N-Methyl-2-pyrrolidone, hydrate): Mono
Form in Ambient AAC ([5]; N-Methyl-2-pyrrolidone): 2.5
Form in Ambient ([5]; p-Xylene): Mono
Form in Ambient AAC ([5]; p-Xylene): 2.5
water content of the solvent system at which the form is the most stable / obtained form ([6]; 5° C. (below ambient), hydrate): above 2%
water content of the solvent system at which the form is the most stable / obtained form ([6]; ambient conditions, hydrate): above 3%
solid form after thermocycling (Thermocycling studies; ethanol, absolute or extra dry, hydrate): converted to the monohydrate Form 1
solid form after thermocycling (Thermocycling studies; methanol, no water present): converts to the monohydrate Form 1
relative stability of the form (Thermocycling studies; thermocycling in ethanol/water mixtures): most stable form in a wide range of ethanol/water mixtures
relative stability of the form (Thermocycling studies; thermocycling in methanol/water mixtures): most stable form in a wide range of methanol/water mixtures
hygroscopicity [7]: not hygroscopic

CCCCc1nc2cc(/C=C/C(=O)NO)ccc2n1CCN(CC)CC [Form 4, 3-[2-butyl-1-(2-diethylamino-ethyl)-1H-benzoimidazol-5-yl]-N-hydroxy-acrylamide dihydrochloride 1.5 hydrate]
Stability ([1]; hydrate): Unstable

CCCCc1nc2cc(/C=C/C(=O)NO)ccc2n1CCN(CC)CC [Form 5, 3-[2-butyl-1-(2-diethylamino-ethyl)-1H-benzoimidazol-5-yl]-N-hydroxy-acrylamide dihydrochloride]
Stability ([1]; dihydrochloride): Unstable

CCCCc1nc2cc(/C=C/C(=O)NO)ccc2n1CCN(CC)CC [Form 9, 3-[2-butyl-1-(2-diethylamino-ethyl)-1H-benzoimidazol-5-yl]-N-hydroxy-acrylamide dihydrochloride anhydrous]
Stability [1]: Unstable
water content of the solvent system at which the form is the most stable form ([6]; 50° C. (elevated temperatures)): below 1.5%
water content of the solvent system at which the form is the most stable / obtained form ([6]; ambient conditions): below 2.5%

CCCCc1nc2cc(/C=C/C(=O)NO)ccc2n1CCN(CC)CC [Form 10, 3-[2-butyl-1-(2-diethylamino-ethyl)-1H-benzoimidazol-5-yl]-N-hydroxy-acrylamide dihydrochloride hemihydrate]
Stability ([1]; dihydrochloride hemihydrate): Unstable
physical stability under ambient conditions ([3]; form appearing at 0% RH, converts to 2.5 hydrate (Form 3)): physically unstable
